target: T1, human GABAA receptor α1β2 and γ2 subunits (Homo sapiens, UniProt P14867+P18507+P47870); experiment: Automated patch clamp studies on the GABAA receptor cells; format: cell-based; details: 10 μM compound; 15 μM GABA; CHO-K1 cells; Table B
T1 construct: expressed in transfected cells
Protocol: CHO-K1 cells stably expressing human GABAA receptor α1β2 and γ2 subunits were used. The cells were harvested using trypsin and maintained in serum-free medium at room temperature. The cells were washed and re-suspended in extracellular solution before testing.
Experiments on human GABAA (α1β2γ2) channels were conducted using an automated patch clamp assay (lonFlux™ HT). The external solution for recording GABAA currents was composed of sodium chloride 137 mM, potassium chloride 4 mM, calcium chloride 1.8 mM, magnesium chloride 1 mM, HEPES 10 mM, and glucose 10 mM. Both external and internal solutions were titrated with NaOH or KOH to obtain a pH of 7.35 and 7.3, respectively. The internal pipette solution contained potassium fluoride 70 mM, potassium chloride 60 mM, sodium chloride 70 mM, HEPES 5 mM, EGTA 5 mM, and Magnesium ATP 4 mM. The final concentration of vehicle used to dilute compounds was 0.33% DMSO in each well. Bicuculline (0.032 to 100 μM) was used as positive control inhibitor. GABA (15 μM) was used as agonist. All recordings were obtained from a holding potential of −60 mV.
The compound addition sequence was the following: one addition of the EC80 concentration of GABA was added to establish baseline response. Each concentration of compound was applied for 30 seconds followed by the addition of 15 μM GABA in the presence of the compound for 2 seconds. The process was repeated with the next ascending concentration of compound. Peak inward currents in response to the GABA additions in the presence of a single concentration of compound were measured. All compound data have been normalized to the baseline peak current induced by addition of 15 μM GABA for 2 seconds.

T1 sequence (P14867 28-456): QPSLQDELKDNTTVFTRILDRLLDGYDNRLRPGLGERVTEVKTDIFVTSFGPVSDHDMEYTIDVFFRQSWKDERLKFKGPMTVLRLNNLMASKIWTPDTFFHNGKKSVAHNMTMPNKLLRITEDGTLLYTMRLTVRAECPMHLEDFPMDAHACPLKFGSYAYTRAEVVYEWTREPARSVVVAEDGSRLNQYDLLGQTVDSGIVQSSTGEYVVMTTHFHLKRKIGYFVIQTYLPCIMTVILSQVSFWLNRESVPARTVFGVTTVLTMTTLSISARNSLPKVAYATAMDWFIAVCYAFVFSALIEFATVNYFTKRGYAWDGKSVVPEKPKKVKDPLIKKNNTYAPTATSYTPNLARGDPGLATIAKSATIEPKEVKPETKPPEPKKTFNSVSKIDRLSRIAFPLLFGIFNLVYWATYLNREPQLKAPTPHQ
T1 sequence (P47870 25-512 limits assumed): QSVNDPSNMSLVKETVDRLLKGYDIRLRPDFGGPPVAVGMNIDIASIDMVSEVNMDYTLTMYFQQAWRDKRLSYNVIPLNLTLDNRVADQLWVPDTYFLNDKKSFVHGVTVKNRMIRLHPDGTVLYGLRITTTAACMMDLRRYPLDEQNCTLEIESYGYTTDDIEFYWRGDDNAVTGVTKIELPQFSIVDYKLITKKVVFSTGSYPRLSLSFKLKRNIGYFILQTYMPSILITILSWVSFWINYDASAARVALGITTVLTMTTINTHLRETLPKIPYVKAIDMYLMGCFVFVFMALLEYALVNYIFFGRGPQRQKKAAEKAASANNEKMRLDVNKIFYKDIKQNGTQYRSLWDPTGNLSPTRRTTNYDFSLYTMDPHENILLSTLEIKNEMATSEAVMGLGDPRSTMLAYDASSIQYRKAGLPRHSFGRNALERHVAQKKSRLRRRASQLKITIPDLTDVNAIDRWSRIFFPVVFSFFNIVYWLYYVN
T1 sequence (P18507 40-475): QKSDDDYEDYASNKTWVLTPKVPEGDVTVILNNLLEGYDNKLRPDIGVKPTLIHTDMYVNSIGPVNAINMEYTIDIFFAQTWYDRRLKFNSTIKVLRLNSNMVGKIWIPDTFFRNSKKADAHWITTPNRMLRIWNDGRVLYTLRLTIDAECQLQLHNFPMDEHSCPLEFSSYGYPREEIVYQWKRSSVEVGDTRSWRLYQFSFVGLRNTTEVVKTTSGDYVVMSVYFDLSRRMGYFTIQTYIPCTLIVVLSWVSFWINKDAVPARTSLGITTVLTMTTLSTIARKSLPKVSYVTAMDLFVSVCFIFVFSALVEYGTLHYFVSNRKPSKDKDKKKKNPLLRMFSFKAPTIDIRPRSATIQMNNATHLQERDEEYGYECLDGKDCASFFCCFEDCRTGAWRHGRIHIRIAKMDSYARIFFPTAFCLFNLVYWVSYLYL

% GABAA inhibition | Structure (SMILES)
1.4% | COc1ccc(C#N)c(CC(=O)N2CC[C@@H]3[C@H](CCC[C@H]3C(C)(O)C(F)(F)F)[C@@H]2C)c1Cl (single isomer, unassigned) [Example 7-B]

target: T2, CYP3A4 (Homo sapiens, UniProt P08684); experiment: In vitro assessment of CYP3A4 inhibition potential using cryopreserved human microsomes; format: in vitro ADME; details: human, cryopreserved human microsomes (pooled donors), probe midazolam 2.5 μM (1-hydroxymidazolam formation), 20 μM compound, human microsomes 0.25 mg/ml, Table C
T2 construct: cryopreserved human microsomes (pooled donors); from tissue
T2 sequence (P08684 whole entry): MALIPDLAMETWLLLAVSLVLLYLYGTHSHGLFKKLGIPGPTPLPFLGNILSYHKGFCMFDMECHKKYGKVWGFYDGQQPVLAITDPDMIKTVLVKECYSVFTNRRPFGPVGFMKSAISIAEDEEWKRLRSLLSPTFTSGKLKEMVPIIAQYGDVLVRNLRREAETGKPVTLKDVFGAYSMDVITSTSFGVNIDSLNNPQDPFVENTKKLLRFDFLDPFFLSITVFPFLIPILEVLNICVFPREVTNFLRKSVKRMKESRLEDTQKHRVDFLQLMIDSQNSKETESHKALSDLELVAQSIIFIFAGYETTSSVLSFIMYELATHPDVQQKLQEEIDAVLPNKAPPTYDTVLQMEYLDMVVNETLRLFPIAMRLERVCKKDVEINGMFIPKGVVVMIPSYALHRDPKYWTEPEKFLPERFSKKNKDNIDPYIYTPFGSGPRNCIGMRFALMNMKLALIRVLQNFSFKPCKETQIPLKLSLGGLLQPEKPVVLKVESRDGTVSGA
Protocol: The objective of the human microsome assay is to characterize the inhibition potential of Compound of formula (I) by measuring the CYP3A4 activities after its co-incubation with midazolam, a specific CYP3A4 substrate.
To this aim, cryopreserved human microsomes (pooled donors) are divided on a 48 well collagen coated plate so that the final concentration is 0.25 mg/ml. The UCB compound is then added in the wells at 20 μM concentration in duplicate. After 30 min incubation, midazolam is added at 2.5 μM concentration. After 15 min, an aliquot is removed and placed into an equal volume of methanol containing internal standard. The samples are centrifuged at 2500 rpm at 4° C. for 20 min. An aliquot of supernatant is diluted with deionised water and levels of 1-hydroxymidazolam is quantified using generic LC MS/MS methods.
The concentrations are compared to those obtained after midazolam incubation at the same concentration but without UCB compound pre-incubation. The results are expressed as % of inhibition.

inhibition at 15 min, 20 μM | Structure (SMILES)
≤ 20% | C[C@H]1[C@H]2CCC[C@@H]([C@H](O)C(F)(F)F)[C@@H]2CCN1C(=O)Cc1c(Cl)cnc(C(O)C(F)F)c1Cl (single isomer, unassigned) [Example 15-A]

target: T3, dopamine D1 receptor (Homo sapiens, UniProt P21728); experiment: cAMP HTRF potentiation assay (in the presence of dopamine); format: cell-based; details: potentiation of cAMP with [EC20] of dopamine (1.1 nM); LMtk (Ltk−) mouse fibroblast cells expressing the dopamine D1 receptor
T3 construct: host or cells: LMtk (Ltk-) mouse fibroblast cells, kept under Geneticin
T3 sequence (P21728 whole entry): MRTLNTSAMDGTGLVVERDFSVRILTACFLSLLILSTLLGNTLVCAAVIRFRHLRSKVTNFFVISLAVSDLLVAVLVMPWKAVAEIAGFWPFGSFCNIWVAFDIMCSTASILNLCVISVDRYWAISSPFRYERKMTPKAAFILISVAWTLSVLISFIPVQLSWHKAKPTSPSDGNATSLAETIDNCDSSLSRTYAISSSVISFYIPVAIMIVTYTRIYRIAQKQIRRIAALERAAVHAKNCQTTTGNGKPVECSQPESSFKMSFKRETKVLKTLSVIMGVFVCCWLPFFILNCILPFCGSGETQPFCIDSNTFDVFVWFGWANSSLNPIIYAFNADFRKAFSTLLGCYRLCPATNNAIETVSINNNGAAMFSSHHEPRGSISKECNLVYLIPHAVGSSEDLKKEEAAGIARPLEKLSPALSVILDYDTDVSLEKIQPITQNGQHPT
Protocol: The potentiation assay measures the ability of compounds to increase the levels of cAMP produced by a low-threshold concentration of dopamine. The concentration of dopamine used ([EC20]) is designed to produce 20% stimulation compared to the maximal response (100%) seen with increasing the concentration of dopamine. To measure this potentiation we incubate increasing concentrations of the compound with the [EC20] of dopamine and measure the potentiation as increases in cAMP production. The pEC50 of a compound is the −log 10 of the concentration of the compound which produces 50% of the potentiation of the cAMP levels and the Erel is the relative efficacy, defined as the maximal % potentiation produced by the compound compared to the maximal response produced by increasing concentrations of dopamine (Erel of 1=dopamine maximum response).
Cells were cultured at 37° C. in a humidified atmosphere of 5% CO2. Cells were grown in DMEM-F12+GlutaMAX™-1 medium (GIBCO®, Invitrogen, Merelbeke, Belgium) containing 10% fetal bovine serum (BioWhittaker®, Lonza, Verviers, Belgium), 400 μg/mL Geneticin (GIBCO®), 100 IU/mL Penicillin and 100 IU/mL Streptomycin (Pen-Strep solution, BioWhittaker®).
The measurement of changes in intracellular cyclic adenosinemonophopshpate (cAMP) was determined using the HTRF cAMP dynamic assay kit from CisBio (Codolet, France). Using homogenous time-resolved fluoresence technology, the assay is based on competition between native cAMP produced by cells and cAMP labelled with the dye d2. The tracer binding is determined by an anti-cAMP antibody labeled with cryptate. The effects of the compound alone (agonism) was determined by performing the assay in the absence of dopamine, whilst the effect of the compound as a positive allosteric modulator (PAM) was determined in the presence of an EC20 concentration of dopamine. Cells (20,000 per well) are incubated in 384 plates for 1 h at rt in a final volume of 20 μLHBSS (Lonza, with calcium, magnesium and HEPES buffer 20 mM, pH 7.4) containing: isobutyl methylxanthine (Sigma, 0.1 mM final), varying concentrations of test compound (typically 10^−9.5 M to 10^−4.5 M) in the presence and absence of dopamine (1.1 nM final). The reaction is then terminated and the cells lysed by adding the d2 detection reagent in lysis buffer (10 μL) and the cryptate reagent in lysis buffer (10 μL) according to manufacturer's instructions. This is then incubated for a further 60 min at rt and changes in HTRF fluorescent emission ratio determined according to manufacturer's instructions using an Envision plate reader (Perkin Elmer, Zaventem, Belgium) with laser excitation. All incubations were performed in duplicate and results were compared to a concentration-effect curve to dopamine. (10^−11 M to 10^−6 M).
Data was analyzed using Excel and PRISM (GraphPad Software) to obtain pEC50 and Erel using the 4-parameter logistic equation (DeLean et al, 1978) where Erel is the fitted maximal response of the test compound minus basal expressed as a percentage relative to that obtained with dopamine which was defined as 100%.

Structure (SMILES) | EC50
C[C@H]1[C@H]2CCC[C@@H]([C@H](O)C(F)(F)F)[C@@H]2CCN1C(=O)Cc1c(Cl)cnc(C(O)C(F)F)c1Cl (single isomer, unassigned) [Example 15-B] | 25.1 nM
CC(O)c1ncc(Cl)c(CC(=O)N2CC[C@H]3[C@H](CCC(C)(C)O)CCC[C@@H]3[C@@H]2C)c1Cl (single isomer, unassigned) [Example 24-A] | 79.4 nM
C[C@H]1[C@H]2CCC[C@@H]([C@H](O)C(F)(F)F)[C@@H]2CCN1C(=O)Cc1c(Cl)ccc(OC(F)F)c1Cl [Example 19, 1-[(1 S,4aR,5R,8aS)-1-methyl-5-[(1 S)-2,2,2-trifluoro-1-hydroxy-ethyl]-3,4,4a,5,6,7,8,8a-octahydro-1H-isoquinolin-2-yl]-2-[2,6-dichloro-3-(difluoromethoxy)phenyl]ethanone] | 200 nM
CC(O)c1ncc(Cl)c(CC(=O)N2CC[C@@H]3[C@H](CCC[C@H]3[C@](C)(O)C(F)F)[C@@H]2C)c1Cl (single isomer, unassigned) [Example 18-B] | 158 nM
CC(O)c1ncc(Cl)c(CC(=O)N2CC[C@H]3[C@H](CCC(C)(C)O)CCC[C@@H]3[C@@H]2C)c1Cl (single isomer, unassigned) [Example 24-B] | 39.8 nM
C[C@H]1[C@H]2CCC[C@@H](CCC(C)(C)O)[C@@H]2CCN1C(=O)Cc1c(Cl)ccc2c1c(Cl)nn2C [Example 22, 1-[(1S,4aS,5S,8aS)-5-(3-hydroxy-3-methyl-butyl)-1-methyl-3,4,4a,5,6,7,8,8a-octahydro-1H-isoquinolin-2-yl]-2-(3,5-dichloro-1-methyl-indazol-4-yl)ethanone] | 200 nM
COc1ccc(C#N)c(CC(=O)N2CC[C@H]3[C@H](CCC(C)(C)O)CCC[C@@H]3[C@@H]2C)c1Cl [Example 21, 2-[2-[(1S,4aS,5S,8aS)-5-(3-hydroxy-3-methyl-butyl)-1-methyl-3,4,4a,5,6,7,8,8a-octahydro-1H-isoquinolin-2-yl]-2-oxo-ethyl]-3-chloro-4-methoxy-benzonitrile] | 50.1 nM
C[C@H]1[C@H]2CCC[C@@H]([C@H](O)C(F)(F)F)[C@@H]2CCN1C(=O)Cc1c(Cl)cnc(C(O)C(F)F)c1Cl (single isomer, unassigned) [Example 15-A] | 39.8 nM

Other lines, results leading:

EC50 | Structure (SMILES)
126 nM | CC(O)c1ncc(Cl)c(CC(=O)N2CC[C@H]3[C@H]([C@H](O)C(F)F)CCC[C@@H]3[C@@H]2C)c1Cl (single isomer, unassigned) [Example 17-B]
794 nM | COc1ccc(C#N)c(CC(=O)N2CC[C@@H]3[C@H](CCC[C@H]3C(C)(O)C(F)(F)F)[C@@H]2C)c1Cl (single isomer, unassigned) [Example 7-B]
631 nM | COc1ccc(C#N)c(CC(=O)N2CC[C@@H]3[C@H](CCC[C@H]3c3cn[nH]n3)[C@@H]2C)c1Cl [Example 25, 2-[2-[(1S,4aR,5R,8aS)-1-methyl-5-(2H-triazol-4-yl)-3,4,4a,5,6,7,8,8a-octahydro-1H-isoquinolin-2-yl]-2-oxoethyl]-3-chloro-4-methoxybenzonitrile]
50.1 nM | C[C@H]1[C@H]2CCC[C@@H](CCC(C)(C)O)[C@@H]2CCN1C(=O)Cc1c(Cl)cnc(CO)c1Cl [Example 23, 1-[(1S,4aS,5S,8aS)-5-(3-hydroxy-3-methyl-butyl)-1-methyl-3,4,4a,5,6,7,8,8a-octahydro-1H-isoquinolin-2-yl]-2-[3,5-dichloro-2-(hydroxymethyl)-4-pyridyl]ethanone]
158 nM | COc1ccc(C#N)c(CC(=O)N2CC[C@H]3C(C#CC(C)(C)O)CCC[C@@H]3[C@@H]2C)c1Cl (stereo partly drawn) [Example 20, 2-[2-[(1S,4aS,8aS)-5-(3-hydroxy-3-methyl-but-1-ynyl)-1-methyl-3,4,4a,5,6,7,8,8a-octahydro-1H-isoquinolin-2-yl]-2-oxo-ethyl]-3-chloro-4-methoxy-benzonitrile]
3160 nM | C[C@H]1[C@H]2CCC[C@@H]([C@H](O)C(F)(F)F)[C@@H]2C[C@H](CO)N1C(=O)Cc1c(Cl)ccc2c1c(Cl)nn2C [Example 26-A, 1-[(1S,3R,4aR,5R,8aS)-3-(hydroxymethyl)-1-methyl-5-[(1S)-2,2,2-trifluoro-1-hydroxy-ethyl]-3,4,4a,5,6,7,8,8a-octahydro-1H-isoquinolin-2-yl]-2-(3,5-dichloro-1-methyl-indazol-4-yl)ethanone]
251 nM | C[C@H]1[C@H]2CCC[C@@H]([C@H](O)C(F)(F)F)[C@@H]2CCN1C(=O)Cc1c(Cl)ccc2c1c(Cl)cn2C [Example 27, 1-[(1 S,4aR,5R,8aS)-1-methyl-5-[(1 S)-2,2,2-trifluoro-1-hydroxy-ethyl]-3,4,4a,5,6,7,8,8a-octahydro-1H-isoquinolin-2-yl]-2-(3,5-dichloro-1-methyl-indol-4-yl)ethanone]
79.4 nM | C[C@H]1[C@H]2CCC[C@@H]([C@@H](O)C(F)(F)F)[C@@H]2CCN1C(=O)Cc1c(Cl)cnc(C(C)(O)C(F)F)c1Cl (single isomer, unassigned) [Example 16-B]
200 nM | CC(O)c1ncc(Cl)c(CC(=O)N2CC[C@@H]3[C@H](CCC[C@H]3[C@](C)(O)C(F)F)[C@@H]2C)c1Cl (single isomer, unassigned) [Example 18-A]
158 nM | CC(O)c1ncc(Cl)c(CC(=O)N2CC[C@H]3[C@H]([C@H](O)C(F)F)CCC[C@@H]3[C@@H]2C)c1Cl (single isomer, unassigned) [Example 17-A]
50.1 nM | C[C@H]1[C@@H]2CCC[C@H]([C@H](O)C(F)(F)F)[C@H]2C[C@H](CO)N1C(=O)Cc1c(Cl)ccc2c1c(Cl)nn2C [Example 26-B, 1-[(1S,3R,4aS,5S,8aR)-3-(hydroxymethyl)-1-methyl-5-[(1S)-2,2,2-trifluoro-1-hydroxy-ethyl]-3,4,4a,5,6,7,8,8a-octahydro-1H-isoquinolin-2-yl]-2-(3,5-dichloro-1-methyl-indazol-4-yl)ethanone]

— US20240043400A1, “Octahydroisoquinolinyl Derivatives” (UCB Biopharma SRL, priority 2020, published 2024)
